Patent publication US20180148418A1, “AMIDO-SUBSTITUTED CYCLOHEXANE DERIVATIVES” (Bayer Pharma Aktiengesellschaft, priority 2015, published 2018)
pIC50: −log10 of the molar value.

Key:
[1] = test system: HEK293 cells cotransfected with the FOP control vector; experiment: HEK293 FOP assay (control reporter with non-functional TCF elements); format: cell-based; conditions: Homo sapiens, 16 hours
Procedure, shortened: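 Compound series from 50 μM down to 15 nM, prediluted in DMSO then 50-fold into CAFTY buffer (pH 7.4, 2 mM Ca2+, 0.01% BSA), tested alongside TOP cells on a Geneticin-selected HEK293 FOP line whose TCF elements are replaced by a random sequence; recombinant human Wnt-3a applied at 2500-5 ng/ml.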

TNKS1 = molecular target: T1, TNKS1 (Homo sapiens, UniProt O95271); experiment: TNKS1 Assay B (auto-parsylation, [3H]-NAD+ SPA); format: biochemical; conditions: 6 nM TNKS1, auto-parsylation, over night at room temperature
T1 construct: purchased BPS Bioscience, San Diego, USA 80579 (TNKS1 Histone Ribosylation Assay Kit)
T1 sequence (O95271 1-1327): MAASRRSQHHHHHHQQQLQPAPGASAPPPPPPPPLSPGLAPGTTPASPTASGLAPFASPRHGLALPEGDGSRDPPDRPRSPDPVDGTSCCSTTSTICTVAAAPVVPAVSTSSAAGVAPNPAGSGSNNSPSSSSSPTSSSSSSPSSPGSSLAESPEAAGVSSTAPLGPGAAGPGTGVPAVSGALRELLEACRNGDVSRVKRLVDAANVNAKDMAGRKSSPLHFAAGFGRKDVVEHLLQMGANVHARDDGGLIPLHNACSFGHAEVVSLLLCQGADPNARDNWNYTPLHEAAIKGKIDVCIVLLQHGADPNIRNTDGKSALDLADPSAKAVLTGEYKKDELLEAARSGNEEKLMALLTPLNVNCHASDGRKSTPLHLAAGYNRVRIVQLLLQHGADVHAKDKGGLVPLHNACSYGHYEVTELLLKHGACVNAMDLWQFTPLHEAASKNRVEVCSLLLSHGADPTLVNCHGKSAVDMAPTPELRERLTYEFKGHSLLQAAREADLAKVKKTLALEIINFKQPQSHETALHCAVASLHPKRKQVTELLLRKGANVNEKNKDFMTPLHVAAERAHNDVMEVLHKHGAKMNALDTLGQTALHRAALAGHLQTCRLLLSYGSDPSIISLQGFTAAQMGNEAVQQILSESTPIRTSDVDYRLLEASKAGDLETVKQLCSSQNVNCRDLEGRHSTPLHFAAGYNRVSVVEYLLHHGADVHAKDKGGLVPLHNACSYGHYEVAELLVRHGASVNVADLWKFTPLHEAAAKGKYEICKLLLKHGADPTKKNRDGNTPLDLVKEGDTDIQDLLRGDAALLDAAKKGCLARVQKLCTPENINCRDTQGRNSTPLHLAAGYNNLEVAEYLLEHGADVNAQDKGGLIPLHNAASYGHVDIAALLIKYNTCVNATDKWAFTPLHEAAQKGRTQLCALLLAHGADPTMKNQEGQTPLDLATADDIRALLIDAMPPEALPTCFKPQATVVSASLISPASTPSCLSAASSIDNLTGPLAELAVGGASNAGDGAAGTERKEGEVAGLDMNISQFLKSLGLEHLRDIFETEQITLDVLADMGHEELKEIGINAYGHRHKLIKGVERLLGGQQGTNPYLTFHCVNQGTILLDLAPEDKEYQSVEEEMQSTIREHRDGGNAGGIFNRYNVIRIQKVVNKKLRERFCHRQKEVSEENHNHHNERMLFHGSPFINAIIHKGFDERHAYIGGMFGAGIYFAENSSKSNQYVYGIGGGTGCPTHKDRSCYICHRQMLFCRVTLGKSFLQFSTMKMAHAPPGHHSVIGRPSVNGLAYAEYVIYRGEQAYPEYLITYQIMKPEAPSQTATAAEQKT

Structure (SMILES)	pIC50 (TNKS1)	pIC50 [1]
Cc1cc(C)n2ncc(C(=O)N[C@H]3CC[C@H](C(=O)Nc4c(F)cc(F)cc4Cl)CC3)c2n1 [Example 135, N-{trans-4-[(2-chloro-4,6-difluorophenyl)carbamoyl]cyclohexyl}-5,7-dimethylpyrazolo[1,5-a]pyrimidine-3-carboxamide]	7.32	≤ 4.30
CNC(=O)c1nc[nH]c1C(=O)N[C@H]1CC[C@H](C(=O)Nc2cc(C(F)(F)F)ccc2Cl)CC1 [Example 142, N^5-(trans-4-{[2-chloro-5-(trifluoromethyl)phenyl]carbamoyl}cyclohexyl)-N^4-methyl-1H-imidazole-4,5-dicarboxamide]	7.03	4.39
COCC(C)NC(=O)c1nc[nH]c1C(=O)N[C@H]1CC[C@H](C(=O)Nc2cc(C(F)(F)F)ccc2Cl)CC1 (stereo partly drawn) [Example 143, N^5-(trans-4-{[2-chloro-5-(trifluoromethyl)phenyl]carbamoyl}cyclohexyl)-N^4-(1-methoxypropan-2-yl)-1H-imidazole-4,5-dicarboxamide]	6.68	4.48
COC(C)(C)CNC(=O)c1nc[nH]c1C(=O)N[C@H]1CC[C@H](C(=O)Nc2cc(C(F)(F)F)ccc2Cl)CC1 [Example 144, N^5-(trans-4-{[2-chloro-5-(trifluoromethyl)phenyl]carbamoyl}cyclohexyl)-N^4-(2-methoxy-2-methylpropyl)-1H-imidazole-4,5-dicarboxamide]	6.72	4.60
CC(C)(O)CNC(=O)c1nc[nH]c1C(=O)N[C@H]1CC[C@H](C(=O)Nc2cc(C(F)(F)F)ccc2Cl)CC1 [Example 145, N^5-(trans-4-{[2-chloro-5-(trifluoromethyl)phenyl]carbamoyl}cyclohexyl)-N^4-(2-hydroxy-2-methylpropyl)-1H-imidazole-4,5-dicarboxamide]	6.48	4.82
O=C(NCC1CCCO1)c1nc[nH]c1C(=O)N[C@H]1CC[C@H](C(=O)Nc2cc(C(F)(F)F)ccc2Cl)CC1 (stereo partly drawn) [Example 146, N^5-(trans-4-{[2-chloro-5-(trifluoromethyl)phenyl]carbamoyl}cyclohexyl)-N^4-(tetrahydrofuran-2-ylmethyl)-1H-imidazole-4,5-dicarboxamide]	6.82	4.54
CNC(=O)c1nc[nH]c1C(=O)N[C@H]1CC[C@H](C(=O)Nc2ncncc2Cl)CC1 [Example 147, N^5-{trans-4-[(5-chloropyrimidin-4-yl)carbamoyl]cyclohexyl}-N^4-methyl-1H-imidazole-4,5-dicarboxamide]	6.82	≤ 4.30
O=C(N[C@H]1CC[C@]2(CCN(c3ccc(F)cc3Cl)C2=O)CC1)c1cnn2cccnc12 [Example 148, N-[(cis)-2-(2-chloro-4-fluorophenyl)-1-oxo-2-azaspiro[4.5]dec-8-yl]pyrazolo[1,5-a]pyrimidine-3-carboxamide]	5.41	≤ 4.30
O=C(N[C@H]1CC[C@H](C(=O)Nc2cnc(C(F)(F)F)cc2Cl)CC1)c1cnn2cccnc12 [Example 149, N-(trans-4-{[4-chloro-6-(trifluoromethyl)pyridin-3-yl]carbamoyl}cyclohexyl)pyrazolo[1,5-a]pyrimidine-3-carboxamide]	6.54	≤ 4.30
Cc1cc(NC(=O)[C@H]2CC[C@H](NC(=O)c3cnn4cccnc34)CC2)c(Cl)cc1F [Example 150, N-{trans-4-[(2-chloro-4-fluoro-5-methylphenyl)carbamoyl]cyclohexyl}pyrazolo[1,5-a]pyrimidine-3-carboxamide]	6.77	≤ 4.30
Cc1cc(F)cc(Cl)c1NC(=O)[C@H]1CC[C@H](NC(=O)c2cnn3cccnc23)CC1 [Example 151, N-{trans-4-[(2-chloro-4-fluoro-6-methylphenyl)carbamoyl]cyclohexyl}pyrazolo[1,5-a]pyrimidine-3-carboxamide]	6.33	≤ 4.30
CCN(c1ccc(F)cc1Cl)C(=O)[C@H]1CC[C@H](NC(=O)c2cnn3cccnc23)CC1 [Example 154, N-{trans-4-[(2-chloro-4-fluorophenyl)(ethyl)carbamoyl]cyclohexyl}pyrazolo[1,5-a]pyrimidine-3-carboxamide]	7.06	≤ 4.30
CN(c1ccc(F)cc1Cl)C(=O)[C@H]1CC[C@H](NC(=O)c2cnn3cccnc23)CC1 [Example 155, N-{trans-4-[(2-chloro-4-fluorophenyl)(methyl)carbamoyl]cyclohexyl}pyrazolo[1,5-a]pyrimidine-3-carboxamide]	6.85	≤ 4.30
CN(c1ccccc1)C(=O)[C@H]1CC[C@H](NC(=O)c2cnn3cccnc23)CC1 [Example 156, N-{trans-4-[methyl(phenyl)carbamoyl]cyclohexyl}pyrazolo[1,5-a]pyrimidine-3-carboxamide]	6.41	≤ 4.30
CNC(=O)c1nc[nH]c1C(=O)N[C@H]1CC[C@H](C(=O)N(CCO)c2ccc(F)cc2Cl)CC1 [Example 157, N^5-{trans-4-[(2-chloro-4-fluorophenyl)(2-hydroxyethyl)carbamoyl]cyclohexyl}-N^4-methyl-1H-imidazole-4,5-dicarboxamide]	6.35	≤ 4.30

Compounds with a higher pIC50 (TNKS1), results first:

pIC50 (TNKS1)	Structure (SMILES)	pIC50 [1]
7.66	O=C(N[C@H]1CC[C@@]2(CCN(c3ccc(F)cc3Cl)C2=O)CC1)c1cnc2cccnn12 [Example 138, N-[(trans)-2-(2-chloro-4-fluorophenyl)-1-oxo-2-azaspiro[4.5]dec-8-yl]imidazo[1,2-b]pyridazine-3-carboxamide]	≤ 4.30
7.89	O=C(N[C@H]1CC[C@@]2(CCN(c3ccc(F)cc3Cl)C2=O)CC1)c1cnn2cccnc12 [Example 136, N-[(trans)-2-(2-chloro-4-fluorophenyl)-1-oxo-2-azaspiro[4.5]dec-8-yl]pyrazolo[1,5-a]pyrimidine-3-carboxamide]	≤ 4.30
7.92	CNC(=O)c1[nH]cnc1C(=O)N[C@H]1CC[C@@]2(CCN(c3ccc(F)cc3Cl)C2=O)CC1 [Example 140, N^4-[(trans)-2-(2-chloro-4-fluorophenyl)-1-oxo-2-azaspiro[4.5]dec-8-yl]-N^5-methyl-1H-imidazole-4,5-dicarboxamide]	≤ 4.30
7.96	Cc1cnc2c(C(=O)N[C@H]3CC[C@@]4(CCN(c5ccc(F)cc5Cl)C4=O)CC3)cnn2c1 [Example 137, N-[(trans)-2-(2-chloro-4-fluorophenyl)-1-oxo-2-azaspiro[4.5]dec-8-yl]-6-methylpyrazolo[1,5-a]pyrimidine-3-carboxamide]	≤ 4.30
7.96	Cc1cc(C)n2ncc(C(=O)N[C@H]3CC[C@@]4(CCN(c5ccc(F)cc5Cl)C4=O)CC3)c2n1 [Example 139, N-[(trans)-2-(2-chloro-4-fluorophenyl)-1-oxo-2-azaspiro[4.5]dec-8-yl]-5,7-dimethylpyrazolo[1,5-a]pyrimidine-3-carboxamide]	≤ 4.30
7.96	CCNC(=O)c1[nH]cnc1C(=O)N[C@H]1CC[C@@]2(CCN(c3ccc(F)cc3Cl)C2=O)CC1 [Example 141, N^4-[(trans)-2-(2-chloro-4-fluorophenyl)-1-oxo-2-azaspiro[4.5]dec-8-yl]-N^5-ethyl-1H-imidazole-4,5-dicarboxamide]	≤ 4.30
8.10	CC1CCN(CCNC(=O)c2nc[nH]c2C(=O)N[C@H]2CC[C@@]3(CCN(c4ccc(F)cc4Cl)C3=O)CC2)CC1 [Example 160, N^5-[(trans)-2-(2-chloro-4-fluorophenyl)-1-oxo-2-azaspiro[4.5]dec-8-yl]-N^4-[2-(4-methylpiperidin-1-yl)ethyl]-1H-imidazole-4,5-dicarboxamide]	≤ 4.30
